Tests used:
Assay type in all cases: in vivo
[1] = test system: Abutilon theophrasti (ABUTH); test: Glasshouse weed test, fomesafen with adjuvants; details: Table 8, Example 6: fomesafen 60 or 120 g/ha; adjuvant 0.2% v/v; mean over two rates, three replicates, 7, 14 and 20 days
Protocol: (§1) The aromatic ester Finsolv® TN (C12-C15 alkyl benzoate) was tested in a glasshouse against four weed species using the herbicide fomesafen. An agrochemical composition was prepared containing 0.2% v/v of the adjuvant in a track sprayer and was applied at a volume of 200 liters per hectare. Fomesafen was applied at either 60 or 120 grams of pesticide per hectare on each of the weed species. The weed species and their growth stage at spraying were Chenopodium album (CHEAL; growth stage 14), Abutilon theophrasti (ABUTH; growth stage 12), Setaria viridis (SETVI; growth stage 13), and Xanthium strumarium (XANST; growth stage 12).
(§2) Each spray test was replicated three times. The efficacy of the herbicide was assessed visually and expressed as a percentage of the leaf area killed. Samples were assessed at time periods of 7, 14 and 20 days following application. The results shown in Table 8 below are mean averages over the two rates of fomesafen, three replicates and the three assessment timings, and are compared to the efficacy of fomesafen in the absence of an adjuvant, and fomesafen in the presence of the commercially available adjuvant Turbocharge®.

[2] = test system: Chenopodium album (CHEAL); test: Glasshouse weed test, fomesafen with adjuvants; details: Table 8, Example 6: fomesafen 60 or 120 g/ha; adjuvant 0.2% v/v; mean over two rates, three replicates, 7, 14 and 20 days
Protocol: as §1, §2

Setaria viridis (SETVI) = test: Glasshouse weed test, fomesafen with adjuvants; details: Table 8, Example 6: fomesafen 60 or 120 g/ha; adjuvant 0.2% v/v; mean over two rates, three replicates, 7, 14 and 20 days
Protocol: as §1, §2

[3] = test system: Xanthium strumarium (XANST); test: Glasshouse weed test, fomesafen with adjuvants; details: Table 8, Example 6: fomesafen 60 or 120 g/ha; adjuvant 0.2% v/v; mean over two rates, three replicates, 7, 14 and 20 days
Protocol: as §1, §2

[4] = test system: four weed species (CHEAL, ABUTH, SETVI, XANST); test: Glasshouse weed test, fomesafen with adjuvants, mean across species; details: adjuvant 0.2% v/v, mean over two rates
Protocol: as §1, §2
A second experiment was conducted to assess the efficacy of Finsolv® TN as an adjuvant in compositions of fomesafen. This was carried out as outlined above, with the following change: samples were assessed at 6, 14 and 20 days post application.
The results shown in Table 9 below are mean averages over the two rates of fomesafen, three replicates, three assessment timings, and four weed species and are compared to the efficacy of fomesafen in the absence of an adjuvant, and fomesafen in the presence of the commercially available tank-mix adjuvant, Turbocharge®.
An agrochemical composition was prepared containing 0.2% v/v of the adjuvant in a track sprayer and was applied at a volume of 200 liters per hectare. […]
Each spray test was replicated three times. The efficacy of the herbicide was assessed visually and expressed as a percentage of the leaf area killed. Samples were assessed at time periods of 7, 14 and 20 days following application. […]

[5] = test system: four weed species (POLCO, BRAL, DIGSA, COMBE); test: as above; details: mean over two rates, three replicates, 14 and 21 days
Protocol: An agrochemical composition was prepared containing 0.2% v/v of the adjuvant in a track sprayer and was applied at a volume of 200 liters per hectare. The adjuvant oils were emulsified using a small amount of the surfactant Pluronic® PE 10500, which was present in the composition at a concentration of 0.02% v/v. Fomesafen was applied at either 60 or 120 grams of pesticide per hectare on each of the weed species. The weed species and their growth stage at spraying were Polygonum convolvulus (POLCO; growth stage 13-14), Brachiaria plantaginea (BRAL; growth stage 13-14), Digitaria sanguinalis (DIGSA; growth stage 14), and Commelina benghalensis (COMBE; growth stage 13-14).
as §2, with “of” for “of 7,”, “21” for “20”, “20” for “8”, “replicates the two assessment timings,” for “replicates”, “four weed species,” for “three assessment timings,”
An agrochemical composition was prepared containing either 0.2, 0.1, 0.05 or 0.025% v/v of the adjuvant in a track sprayer and was applied at a volume of 200 liters per hectare. The commercial adjuvant Turbocharge® was applied at 0.5% v/v. Fomesafen was applied at either 60 or 120 grams of pesticide per hectare on each of the weed species. The weed species and their growth stage at spraying were Polygonum convolvulus (POLCO; growth stage 13-14), Brachiaria plantaginea (BRAL; growth stage 12-13), Digitaria sanguinalis (DIGSA; growth stage 13), and Commelina benghalensis (COMBE; growth stage 12).
as §2, with “of” for “of 7,”, “21” for “20”, “24” for “8”, “replicates the two assessment timings,” for “replicates”, “four weed species,” for “three assessment timings,”, “Turbocharge®. […]” for “Turbocharge®.”
Each spray test was replicated three times. The efficacy of the herbicide was assessed visually and expressed as a percentage of the leaf area killed. Samples were assessed at time periods of 14 and 21 days following application. […]

SMILES: CS(=O)(=O)NC(=O)c1cc(Oc2ccc(C(F)(F)F)cc2Cl)ccc1[N+](=O)[O-] [Fomesafen, fomesafen]
- Mean percentage kill ABUTH [1]: 19.7 C %
- Mean percentage kill CHEAL [2]: 34.7 C %
- Mean percentage kill SETVI (Setaria viridis (SETVI)): 10.3 B %
- Mean percentage kill XANST [3]: 59.2 C %
- Mean percentage kill, Mean across species ([4]; Table 8, Example 6: fomesafen 60 or 120 g/ha, three replicates, 7, 14 and 20 days): 31.0 C %
- Mean percentage kill, Mean across species ([4]; Table 9, Example 6 second experiment: fomesafen 60 or 120 g/ha, three replicates, 6, 14 and 20 days, four weed species): 44.9 B %
- Mean percentage kill, Mean across species ([4]; Table 15, Example 11: fomesafen 60 or 120 g/ha, three replicates, 7, 14 and 20 days, four weed species): 37.7 C %
- Mean percentage kill, Mean across species ([5]; Table 20, Example 16: fomesafen 60 or 120 g/ha, adjuvant 0.2% v/v emulsified with Pluronic PE 10500 0.02% v/v): 24.3D %
- Mean percentage kill, Mean across species ([5]; Table 24, Example 20: absence of an adjuvant, fomesafen 60 or 120 g/ha): 17.8E %
- Mean percentage kill, Mean across species ([5]; Table 28, Example 25: fomesafen 60 or 120 g/ha, adjuvant 0.2% v/v): 32.8C %
- Mean percentage kill, Mean across species ([5]; Table 34, Example 34: fomesafen 60 or 120 g/ha, adjuvant 0.2% v/v): 17.8B %

— patent publication US10206388B2, “Formulation component” (SYNGENTA LIMITED, priority 2011, dated 2019)
